Data on 2 molecules can be found in US20060193781A1, “Magnetic resonance imaging of metal concentrations” (priority 2002, published 2006).

The nature of assay [1]: Fluorine nuclear relaxation times T1 and T2 and chemical shift of 5F-BAPTA with and without zinc, in water and octanol. It counts as physicochemical. On the procedure:
All fluorine NMR spectra were collected with a 400 MHz Oxford/Varian Unity Plus spectrometer at 25° C. The nominal 90° pulse width was 7.8 μsec.
An equivalent volume (0.7 ml) n-octanol was added, and the mixture was shaken vigorously. The organic and aqueous phases were separated by pipette and placed in NMR tubes. To the octanol solution was added 0.1 ml deuterated methanol to provide an NMR lock signal.

For assay [2] the following is noted: for T2 bound / T2 free: 2 mM complexing agent, 400 MHz, 25° C. On the procedure:
All fluorine NMR spectra were collected with a 400 MHz Oxford/Varian Unity Plus spectrometer at 25° C. The nominal 90° pulse width was 7.8 μsec. Transverse relaxation times were determined by the best fit of data collected using the Carr-Purcell-Meiboom-Gill sequence supplied with the spectrometer.
A 1 M solution of Ultra Pure ZnCl2 (Sigma) was prepared and diluted in a serial fashion to produce intermediate stock solutions of concentration 100 mM and 10 mM in water. A 200 mM solution of 5-T-BAPTA (Molecular Probes) was prepared and added to aliquots of either zinc solution, as appropriate, in sufficient quantity to yield a final, fixed concentration of 2 mM of the complexing agent.

The mark [3] stands for this setting: aqueous solution of the zinc complex.
Where [4] appears, read: aqueous solution without zinc, HEPES buffer, 400 MHz, 25° C.
[5] abbreviates: Sample 2: ZnCl2 0.5 mM, MgCl2 1.5 mM.

Structures are written as SMILES. Read-outs that look alike come from different tables or passages of the source.

On to `O=C(O)CN(CC(=O)O)c1ccc(F)cc1OCCOc1cc(F)ccc1N(CC(=O)O)CC(=O)O` [5F-BAPTA, 1,2-bis-(2-amino-5-fluorophenoxy)ethane-N,N,N′,N′-tetraacetic acid], for which the “change of fluorine transverse relaxation time upon complexation with Zn^+2” value in assay [1] is recorded as “large reduction”. Besides, the T1 value in assay [1] (setting [3]) amounted to 0.82 ± 0.01 s; in assay [1] (setting [4]) it was 0.82 ± 0.01 s; in assay [1] (zinc complex in octanol solution), 0.53 ± 0.01 s. Moreover, the T2 value in assay [1] (setting [3]) was 0.0248±0.0003; in assay [1] (setting [4]) it was 0.080 ± 0.003 s; in assay [1] (zinc complex in octanol), 0.013 ± 0.001 s.

In the case of `O=C(O)CN(CC(=O)O)c1ccc(C(F)(F)F)cc1OCCOc1cc(C(F)(F)F)ccc1N(CC(=O)O)CC(=O)O` [5T-BAPTA, 1,2-bis-(2-amino-5-trifluoromethylphenoxy)ethane-N,N,N′,N′-tetra acetic acid], the T2 bound in assay [2] (Sample 1: ZnCl2 2.0 mM, MgCl2 1.0 mM, CaCl2 2.0 mM) was 0.14 ± 0.03 s; in assay [2] (setting [5]), 0.265 ± 0.025 s; in assay [2] (Sample 4: ZnCl2 3.5 mM, MgCl2 0.5 mM, CaCl2 1.0 mM) it was 0.216 ± 0.007 s. Besides, in assay [2] (Sample 1 vs Sample 3), the “T2 of the complex (Sample 1) relative to T2 of the free complexing agent (Sample 3)” value is recorded as “⅕”. For the same molecule, the T2 free is 0.387 ± 0.012 s in assay [2] (setting [5]) and 0.763 ± 0.032 s in assay [2] (Sample 3: ZnCl2 0 mM, MgCl2 1.65 mM, CaCl2 3.35 mM).
